Patent US6500823B1, “Unsaturated hydroximic acid derivatives as per abstract inhibitors” (N-Gene Research Laboratories, Inc., priority 1998, dated 2002)
Where a name gives a salt, the structure may show the parent alone.

How the values were obtained:
[1] = tested on: HepG2 cells; experiment: LDH enzyme activity in hypoxia exposed HepG2 cells; format: cell-based; conditions: Homo sapiens, 30 μg/ml, hypoxia 1% O2 24 hours, Hypoxic control = 100, read-out: Relative LDH content, %
Protocol: HepG2 cell were cultured in DMEM medium supplemented with 10% FCS in 5% CO2 containing air at 37° C. 10^5 cells were plated in the wells of Costar 24-well culture plates in 1 ml medium. On the following day, cells were treated with the test compounds in a concentration of 30 μg/ml, then cells were exposed to hypoxia treatment (1% O2, 5% CO2 in nitrogen gas) for 24 hours. A part of the control cultures were treated with water used as the solvent, and another part of them was not exposed to hypoxia. At the end of the hypoxic treatment, medium was removed and cells were washed twice with cold PBS. Cells lysates were prepared in 0.05% Triton X-100 containing phosphate buffer (0.05 M) and after centrifugation (2 min. […]) the LDH activity of the supernatant was determined on the basis of NADH consumption in the presence of sodium piruvate substrate.
The LDH activity of the cells treated with the test compounds and compared to the activity of the control exposed to hypoxia is shown in Table 6.

[2] = molecular target: Moloney murine leukemia virus reverse transcriptase (Moloney murine leukemia virus, UniProt P03355); experiment: Reverse transcriptase inhibition, (3H)dTTP incorporation; format: biochemical; conditions: for reverse transcriptase inhibiting effect compared with Nevirapin and AZT, in words: dose dependent, lower than AZT; for inhibition at 0.5 µg/mL: concentration 0.5 μg/ml; for inhibition at 1 µg/mL: concentration 1.0 μg/ml
Protocol: The compounds may be sorted into group of the non-nucleoside type reverse transcriptase inhibitors. Tests were performed on Moloney murine leukemia virus reverse transcriptase that is considered as a good model of the HIV reverse transcriptase enzyme. The experimental assembly was the following.
The assay measures the incorporation of (3H)dTTP into cDNA using poly(dA) template and oligo(dT)12-18 primer. The reaction was carried out in 20 μl volume.
The reaction was started by addition of 5U reverse transcriptase
The reaction mixture was incubated for 40 min at 37° C. Then 15 μl of the reaction mixture was loaded on Whatman DE81 filter discs and filters were washed sequentially with 5% disodium hidrogen phosphate buffer, with water and with 96% (v/v) ethanol. After drying, the filters were placed into scintillation cocktail (OptiPhase, HiSafe, Wallac) and the radioactivity was measured in a Packard Tri-Carb 2200 scintillation counter.
Two compounds with known inhibitory activity were used in the experiments as positive control. AZT is a nucleoside analog while the compound Nevirapin is a non-nucleoside type inhibitor. Nevirapine binds to the so called benzodiazepine binding site of the enzyme. The applied concentrations of the test compounds were in the 0.2-2 μg/ml concentration range.

[3] = molecular target: T1, poly-ADP-ribose polymerase from rat liver (Rattus norvegicus, UniProt P27008); experiment: In vitro PARP inhibition on isolated enzyme; format: biochemical; conditions: isolated rat liver enzyme; ± SEM from four parallel measurements; read-out: PARP I0.5 mg/l (converted)
T1 construct: We have isolated the poly-ADP-ribose polymerase from rat liver; from tissue; host or cells: rat liver
T1 sequence (P27008 whole entry): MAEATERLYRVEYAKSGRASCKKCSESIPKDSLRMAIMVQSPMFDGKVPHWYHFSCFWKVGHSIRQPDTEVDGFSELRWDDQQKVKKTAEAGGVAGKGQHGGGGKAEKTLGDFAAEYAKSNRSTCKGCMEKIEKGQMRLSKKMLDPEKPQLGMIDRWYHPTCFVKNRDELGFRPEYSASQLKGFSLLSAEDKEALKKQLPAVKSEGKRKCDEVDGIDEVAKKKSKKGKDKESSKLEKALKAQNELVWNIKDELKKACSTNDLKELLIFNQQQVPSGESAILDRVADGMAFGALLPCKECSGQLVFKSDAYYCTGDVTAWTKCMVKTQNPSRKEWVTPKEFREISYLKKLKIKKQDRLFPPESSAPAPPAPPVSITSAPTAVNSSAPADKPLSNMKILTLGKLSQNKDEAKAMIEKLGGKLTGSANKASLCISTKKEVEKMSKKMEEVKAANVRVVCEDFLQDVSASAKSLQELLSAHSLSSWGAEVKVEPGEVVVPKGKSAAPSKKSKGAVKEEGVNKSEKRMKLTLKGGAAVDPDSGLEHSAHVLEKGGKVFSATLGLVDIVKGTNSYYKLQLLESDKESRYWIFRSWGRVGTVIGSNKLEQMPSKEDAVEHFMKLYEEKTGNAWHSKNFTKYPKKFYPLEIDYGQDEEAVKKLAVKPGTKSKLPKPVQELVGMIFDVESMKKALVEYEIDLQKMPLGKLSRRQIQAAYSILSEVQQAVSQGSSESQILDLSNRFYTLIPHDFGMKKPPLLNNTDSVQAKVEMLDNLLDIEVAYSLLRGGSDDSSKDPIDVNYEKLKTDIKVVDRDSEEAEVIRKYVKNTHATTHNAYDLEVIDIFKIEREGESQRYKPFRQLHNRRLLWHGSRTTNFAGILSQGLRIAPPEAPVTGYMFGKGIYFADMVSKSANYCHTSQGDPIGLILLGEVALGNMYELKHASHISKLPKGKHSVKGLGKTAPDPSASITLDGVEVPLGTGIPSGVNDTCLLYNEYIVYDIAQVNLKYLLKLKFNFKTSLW
Protocol: We have isolated the poly-ADP-ribose polymerase from rat liver according to the article Shah.G. M.,Anal Biochem, 227, 1-13 (1995).
We have determined the PARP activation in 130 μl of reaction mixture, which consists of: 100 mM Tris-HCl puffer, pH 8.0, 10 mM MgCl2, 10% glycerol, 1.5 mM DTT, 100 μg of (32P), or (3H), NAD+, 10 μg of histone. We have stopped the reaction after 10 minutes with 8% perchloric acid and seperated the protein through centrifugation (10 minutes, 10.000×g). We have washed the precipitate with 8% perchloric acid, and we measured the radioactivity connected to the protein with scintillation counter.

[4] = tested on: male SPRD rats; experiment: Reperfusion induced arrhythmia after LAD occlusion, survival rate; format: in vivo, rat; conditions: for responders at 1 mg/kg / responders at 5 mg/kg: Rattus norvegicus, iv, read-out: % SURV; for responders at 5 mg/kg: control 15.38; for effect on survival of reperfusion arrhythmia, in words: compared with Example 2 (100% survival)
Protocol: Experiments were carried out in male SPRD rats (acceptable body weight range: 300-350 g). The animals were anesthetized with sodium pentobarbital (Nembutal®: 60 mg/kg intraperitoneally) and remained breathing spontaneously. The animals were ventilated with respirator (MTA Kutesz) by using trachea cannule which was inserted after tracheotomy. The standard lead of the ECG II is monitored. Right femoral artery was catheterized and connected to a pressure transducer (BPR-01, Experimetria, Hungary), a preamplifier and pulsotachometer (HG-M, Experimetria, Hungary) for arterial blood pressure and heart rate measurement, respectively. The external jugular vein was cannulated for drug administration. After thoracotomy a silk (braided, coated 4-0) was placed under the left anterior coronary (LAD) artery. After a few minutes' stabilization period, a 5 min occlusion of LAD artery was applied, followed by a 10 min reperfusion period. The survival rate was evaluated.

[5] = tested on: mouse HSP-70 gene promoter in mouse fibroblast L929 cells; experiment: HSP-70 promoter-luciferase reporter gene assay; format: cell-based; conditions: Control = 100; 10 μl of 10^-2 M solution to 1 ml culture, 30 min, 1 hour regeneration
Text: The activity of HSP-70 was studied by reporter gene assay forming a DNA hybrid. To the promoter sequence of HSP-70 encoding the heat shock protein was fused a gene of a protein that can be detected by a well-measurable enzyme activity. Biotechnological processes were used. As reporter gene luciferase enzyme was employed, the activity of which can be well determined by luminescence measurement. If the promoter of the gene of the luciferase enzyme is substituted by the promoter of the HSP-70 gene, then the change in the activity of the luciferase enzyme i.e. the change of the frequency of the transcription from the gene correlates with the frequency of the transcription of the HSP-70 gene that proceeds in the given circumstances. In this way, if a substance or process influences the expression of the HJSP-70 gene, the effect can be studied through the measurement of the luciferase enzyme activity. The effect of the substances to be tested on the HSP-70 expression was studied in such an experimental system.
A double-stranded DNA circular molecule i.e. a plasmid containing the HSP-70 reporter gene was constructed to perform the measurements. An almost 600 bp long sequence of the mouse HSP-70 gene promoter (5′ direction from the start site of the gene) was fused to the coding sequence of the luciferase gene originated from Photymus pyralis. The applied promoter sequence contained several protein binding sites facilitating the expression of the HSP-70 gene. The HSP promoter-luciferase heterologous gene construct was built in a pBR based plasmid vector that can be selected for neomycin. This HSP-70-luciferase plasmid was transfected into mouse fibroblast L929 cells. The assay was performed as follows.
The HSP-70-luc plasmid containing L929 cells are grown in DMEM (Dulbecco's Modified Eagle's Medium) medium supplemented with 5% FCS (Fetal Calf Serum). 10^4 cells are plated in the wells of a 24-well Costar cell culture plate in 1 ml of culture medium. Test substances are dissolved in PBS (Phosphate Buffered Saline) in 10^−2 M concentration. After attachment of the cells (3-4 hours after plating) 10 μl of the solution are given to the cultures and cells are incubated for 30 min. at 37° C. in a CO2 thermostat. Culture medium is then changed for fresh one (without test substance) and cells are allowed to regenerate for 1 hour at 37° C., then once washed with PBS. After removal of PBS 40 μl of 1× lysis buffer are added to the cells, and the samples are kept on ice for 30 minutes. Then the samples are transferred into Eppendorf vials and centrifuged at 14000 rpm for 20 min at 4° C. 5 μl of the supernatant is added to 25 μl of luciferase assay buffer and the luminescence of the samples is measured for 25 seconds in a luminometer.

[6] = tested on: CD-1 female mice; experiment: Prevention of streptozotocin (SZ)-induced type I diabetes mellitus on mice, blood glucose; format: in vivo, mouse
Protocol: The experiments were carried out on CD-1 female mice weighing 17-19 g (Charles River, Hungary). The animals were divided into three groups. Each group consisted of 10 animals. The first group received 160 mg/kg of streptozotocin, i.p. (Sigma), the second group received 160 mg/kg of streptozotocin, and 200 mg/kg of the compound of Example 2 p.o., the third group served as the control. The blood glucose concentration was measured on the third day. The animals were killed, serum samples were taken for insulin determination, and pancreases were removed for histological studies. The blood glucose concentrations can be seen in Table 3.

[7] = tested on: carnitine-palmitoyl transferase (CPTI); experiment: Determination of CPTI inhibition; format: biochemical; conditions: None = 100; sub-millimolar concentration range

Row | SMILES | activity at 30 µg/mL [1] | reverse transcriptase inhibiting effect compared with Nevirapin and AZT, in words [2] | IC50 [3] | responders at 1 mg/kg [4] | responders at 5 mg/kg [4] | effect on survival of reperfusion arrhythmia, in words [4] | Activity (HSP-70 promoter luciferase) [5] | GLUCOSE (mean ± s.d.) ([6]; 160 mg/kg streptozotocin i.p. + 200 mg/kg compound p.o., blood, third day, control 4.78 ± 2.13) | blood glucose concentration enhanced by streptozotocin, in words ([6]; 200 mg/kg p.o.) | inhibition at 0.2 µg/mL ([2]; concentration 0.2 μg/ml, read-out: Enzyme inhibition, %) | inhibition at 0.5 µg/mL ([2]; read-out: Enzyme inhibition, %) | inhibition at 1 µg/mL ([2]; read-out: Enzyme inhibition, %) | CPTI test in % [7] | inhibition at 2 µg/mL ([2]; concentration 2 μg/ml, read-out: Enzyme inhibition, %)
1 | NC(C=Cc1ccccc1)=NOCC(O)CN1CCCCC1 (stereo not drawn) [Example 4, O-(3-Piperidino-2-hydroxy-propyl)-cinnamic Acid Amidoxime Dihydrochloride] | 118% | higher than that of Nevirapin | 27 µM | 16.7% | 81.8% | similarly outstanding effect | 250 |  |  |  |  |  |  | 
2 | COc1ccc(C=CC(N)=NOCCCN2CCCCC2)cc1OC [Example 2, O-(3-Piperidino-propyl)-3,4-Dimethoxycinnamic Acid Amidoxime Hydrochloride] | 118% |  | 15 µM | 41.7% | 100% |  |  | 8.16 ± 0.65 | remarkably reduces the blood glucose concentration |  |  |  |  | 
3 | NC(C=Cc1ccccc1)=NOCCCN1CCCCC1 [Example 1, O-(3-Piperidino-propyl)-cinnamic Acid Amidoxime Dihydrochloride] |  |  | 13.9 µM | 70% | 46% | similarly outstanding effect | 107 |  |  | 6% | 29% | 44% | 60.1 ± 2.1% | 
4 | NC(C=Cc1cccnc1)=NOCCCN1CCCCC1 [Example 3, O-(3-Piperidino-propyl)-3-(3-Pyridyl)acrylic Acid Amidoxime Hydrochloride] |  | higher than that of Nevirapin | 8.32 µM |  | 40% |  | 207 |  |  |  | 7% | 45% | 68.8 ± 3.2% | 70%
